According to paper PMC11145868, “Protein target similarity is positive predictor of in vitro antipathogenic activity: a drug repurposing strategy for Plasmodium falciparum” (Journal of Cheminformatics, 2024):
Structures can show the parent of a compound that is named as a salt. Where two headings read alike, the source gives them in different places.

What was measured:
P. falciparum Dd2-HLH [1] = test: microbe, parasite or virus in culture; format: cell-based, Plasmodium falciparum
P. falciparum Dd2-HLH [2] = test: microbe, parasite or virus in culture; format: cell-based, Plasmodium falciparum; settings: read-out: Blood stage 72h EC50
[3] = target: P. berghei-luciferase sporozoites; test: microbe, parasite or virus in culture; format: cell-based, Plasmodium berghei
HEK293T cells = test: Mammalian cell cytotoxicity assay, HEK293T (CellTiter-Glo, 72 h); settings: read-out: HEK CC50
in vitro = settings: human
[4] = Mammalian cell cytotoxicity assay, HepG2 (CellTiter-Glo, 72 h); settings: human, HepG2 cells
[5] = Mammalian cell cytotoxicity assay, HEK293T (CellTiter-Glo, 72 h); settings: human, HEK293T cells
[6] = P. falciparum blood-stage parasites, 48 hours in culture, read-out: Blood stage 48h EC50
[7] = P. falciparum blood-stage parasites, 72 hours in culture
[8] = liver-stage parasites, 48 hours in culture, read-out: Liver stage 48h EC50
[9] = Plasmodium falciparum, DD2, Hec50, 48 h, read-out: Blood stage 48 h EC50
[10] = Plasmodium falciparum, DD2, 72 h
[11] = Plasmodium berghei, liver-stage parasites, 48 h in culture, read-out: Liver 48 h EC50
[12] = Plasmodium berghei, HepG2, liver-stage parasites, 48 hours in culture, read-out: Liver stage 48h EC50
[13] = Plasmodium falciparum, DD2, 48 h, read-out: Blood stage 48h EC50

| Molecule | CC50 (HEK293T cells; HEK293T cells) | EC50 (P. falciparum Dd2-HLH [1]; [6]) | EC50 (P. falciparum Dd2-HLH [2]; [7]) | EC50 [3, 8] | EC50 (P. falciparum Dd2-HLH [2]; [10]) | EC50 [3, 12] | EC50 (P. falciparum Dd2-HLH [1]; [13]) | CC50 at 72 h [4] | CC50 at 72 h [5] | further results |
| --- | --- | --- | --- | --- | --- | --- | --- | --- | --- | --- |
| CN(C)c1ccc2c(c1)Sc1cc(N(C)C)ccc1N2 [Leuco methylthioninium] | 3490 nM | – | – | – | – | – | – | – | – | EC50 (P. falciparum Dd2-HLH [1]; read-out: Blood stage 48h EC50): 96 nM; EC50 (P. falciparum Dd2-HLH [2]): 209 nM; EC50 ([3]; read-out: Liver stage 48h EC50): 3920 nM |
| Cc1ncc(NC(=O)c2ccc(CN3CCN(C)CC3)c(C(F)(F)F)c2)cc1Nc1nccc(-c2cccnc2)n1 [Flumatinib mesylate] | > 9950 nM | 85 nM | 213 nM | > 10000 nM | – | – | – | – | – | – |
| O=C(CC1NCCCC1O)Cn1cnc2cc(Br)c(Cl)cc2c1=O (stereo not drawn) [Halofuginone, reference compound] | – | – | – | – | 1 nM | – | – | – | – | EC50 (P. falciparum Dd2-HLH [1]; [9]): 1 nM; EC50 [3, 11]: 70 nM; CC50 at 72 h (in vitro): 88 nM |
| Cc1nc(N2CCN(Cc3ccc(F)cc3)C2=O)sc1C(=O)NCc1cccnc1 [XEN-723] | 57 nM | 158 nM | 334 nM | > 10000 nM | – | – | – | – | – | – |
| COC(=O)C[C@](O)(CCCC(C)(C)O)C(=O)O[C@@H]1C(OC)=C[C@]23CCCN2CCc2cc4c(cc2[C@H]13)OCO4 [Homoharringtonine, reference compound] | – | – | – | – | 7 nM | – | – | – | – | EC50 (P. falciparum Dd2-HLH [1]; [9]): 6 nM; EC50 [3, 11]: 26 nM; CC50 (in vitro): 32 nM |
| XL-888 | – | 201 nM | 348 nM | 99 nM | – | – | – | – | – | CC50 (HEK293T cells; HEK293T cytotoxicity): 47 nM |
| CCc1ccc(OCc2ccccc2C(=O)Nc2ccc3nc(C)cc(N)c3c2)cc1 [JTC-801] | – | 123 nM | 635 nM | 429 nM | – | – | – | – | – | CC50 (HEK293T cells; HEK293T cytotoxicity): 1810 nM |
| Cc1cc(-c2cc(OC(=O)c3ccccc3)ccc2Cl)cc2nnc(Nc3ccc(OCCN4CCCC4)cc3)nc12 [TG-100801] | – | 68 nM | 205 nM | 1410 nM | – | – | – | – | – | CC50 (HEK293T cells; HEK293T cytotoxicity): > 9950 nM |
| SN-38 | 79 nM | 507 nM | 358 nM | 1010 nM | – | – | – | – | – | – |
| N[C@@H]1[C@H]2CN(c3nc4c(cc3F)c(=O)c(C(=O)O)cn4-c3ccc(F)cc3F)C[C@@H]12 [Trovafloxacin mesilate, reference compound] | – | – | – | – | 669 nM | > 10000 nM | – | – | – | EC50 (P. falciparum Dd2-HLH [1]; Plasmodium falciparum, DD2, read-out: EC50, antiplasmodial drug sensitivity assays in bloodstage): 9950 nM; CC50 (in vitro): > 9950 nM |
| COc1cccc2c1C(=O)c1c(O)c3c(c(O)c1C2=O)C[C@@](O)(C(=O)CO)C[C@@H]3O[C@H]1C[C@H](N)[C@H](O)[C@H](C)O1 [Doxorubicin] | – | – | – | – | 250 nM | 1720 nM | 65 nM | 44 nM | 74 nM | – |
| Cc1cc(N)c2cc(NC(=O)Nc3ccc4nc(C)cc(N)c4c3)ccc2n1 [Aminoquinuride] | – | – | – | – | 449 nM | 3490 nM | 79 nM | > 9990 nM | > 9950 nM | – |
| COc1cc(N2CCC(N3CCN(C)CC3)CC2)ccc1Nc1ncc(Cl)c(Nc2ccccc2P(C)(C)=O)n1 [Brigatinib] | – | – | – | – | 346 nM | 3330 nM | 99 nM | 136 nM | 1390 nM | – |
| COc1cc2nc(-c3ccc(N4CCN(C)CC4)cc3)nc(NCCN3CCOCC3)c2cc1OC [CPG-52364] | 1640 nM | 100 nM | 381 nM | 1100 nM | – | – | – | – | – | – |
| CC1=C(c2ccc(O)cc2)[C@H](c2ccc(OCCN3CCCCC3)cc2)Oc2cc(O)ccc21 [Acolbifene] | – | – | – | – | 728 nM | 2830 nM | 218 nM | 6210 nM | 2990 nM | – |
| Cc1[nH]c2ccccc2c1CCNCc1ccc(/C=C/C(=O)NO)cc1 [Panobinostat Lactate] | 78 nM | 20 nM | 51 nM | 131 nM | – | – | – | – | – | – |
| CN(c1ccc(Cl)cc1)c1cc[n+](Cc2ccc(-c3ccc(C[n+]4ccc(N(C)c5ccc(Cl)cc5)c5ccccc54)cc3)cc2)c2ccccc12 [TCD-717] | – | – | – | – | 714 nM | 102 nM | 63 nM | 4770 nM | 1930 nM | – |
| COCCNCc1ccc(-c2cc3nccc(Oc4ccc(NC(=O)C5(C(=O)Nc6ccc(F)cc6)CC5)cc4F)c3s2)nc1 [MG-516] | – | – | – | – | 673 nM | 2180 nM | 144 nM | 1460 nM | 2250 nM | – |
